Test results reported in patent publication US7622469B2, “2,4-diamino-1,3,5-triazine derivatives” (Hamari Chemicals, Ltd., priority 2002, dated 2009).
≈ marks a conversion by molar mass, not a printed value.

Legend:
Experiment in all cases: Antibacterial activity test (MIC)
Conditions in all cases: Mueller-Hinton Broth, 37° C., 20 to 24 hours
P. aeruginosa PAO-1 = format: cell-based
Experimental: (§1) Regarding compounds obtained in respective Working Examples, in order to investigate antibacterial activity, minimal inhibitory concentration (MIC) was determined according to a standard method of Japanese Society of Chemotherapy.
(§2) As a test bacterium, nine kinds of S. aureus 209PJC, MRSA 97-115, MRSA KM 97-53, MRSA KM97-108, VRE 49, E. coli NIHJ JC-2, P. aeruginosa PAO-1, P. aeruginosa No. 12, P. aeruginosa KM97-5 were used and, as a medium, Mueller-Hinton Broth (DIFCO) was used. One platinum loop of a test bacterium was inoculated into 20 ml of a medium, and static culture was carried out at 37° C. for 16 to 20 hours, and then each bacterium species was diluted with a sterilized physiological saline to 10^5/ml, which was used as a test bacterium solution.
(§3) Then, each compound was dissolved in methanol, subjected to ½ stepwise dilution with a medium to prepare a medium for measuring sensitivity, and each 2 ml was dispensed into a test tube. A compound concentration in a medium was adjusted to 100 μg/ml and its 2^n-fold (n=−10 to 1).
(§4) Numerical values in Tables represent MIC expressed in μg/ml unit.

E. coli NIHJ JC-2 = format: cell-based
Experimental: as §1, §2, §3, §4

S. aureus 209PJC = format: cell-based
Experimental: as §1, §2, §3, §4

MRSA 97-115 = format: cell-based, methicillin-resistant Staphylococcus aureus
Experimental: as §1, §2, §3, §4

minimal inhibitory concentration (MIC) (P. aeruginosa PAO-1) | minimal inhibitory concentration (MIC) (E. coli NIHJ JC-2) | minimal inhibitory concentration (MIC) (S. aureus 209PJC) | minimal inhibitory concentration (MIC) (MRSA 97-115) | Structure (SMILES)
50 µg/mL | 50 µg/mL | 3.1 µg/mL | 6.3 µg/mL | CCCCCCCCC1N=C(N)N=C(N)N1c1ccc(OC(F)(F)F)cc1.Cl (stereo not drawn) [compound 26]
100 µg/mL | 100 µg/mL | 0.8 µg/mL | 0.8 µg/mL | CC(=O)O.CCCCCCCNC1=NC(C)(C)N=C(NC(C)(C)CC(C)(C)C)N1 [compound 71]
50 µg/mL | 25 µg/mL | 1.6 µg/mL | 3.1 µg/mL | CCCCCCCCCCC1N=C(N)N=C(N)N1c1ccc(F)cc1F.Cl (stereo not drawn) [compound 33]
50 µg/mL | 25 µg/mL | 0.4 µg/mL | 1.6 µg/mL | CCCCCCCCCCCCC1N=C(N)NC(NCc2ccc(OC)cc2)=N1.Cl (racemic) [16(1)]
>100 µg/mL | 100 µg/mL | 0.8 µg/mL | 1.6 µg/mL | CC(=O)O.CCCCCCCCNC1=NC(C)(C)N=C(NCCCCCCCC)N1 [compound 66]
>100 µg/mL | >100 µg/mL | 0.8 µg/mL | 1.6 µg/mL | CCCCCCCCCCCC1N=C(N)NC(Nc2ccc(F)cc2F)=N1.Cl (racemic) [compound 36]
12.5 µg/mL | 1.6 µg/mL | 0.2 µg/mL | 0.8 µg/mL | CCCCCCCCCCCCC1N=C(N)NC(NCc2ccccc2)=N1.Cl (racemic) [compound 44]
50 µg/mL | 25 µg/mL | 1.5 µg/mL | 3.1 µg/mL | CCCCCCCCC1N=C(N)N=C(N)N1c1ccc(C(C)(C)C)cc1.Cl (stereo not drawn) [compound 21]
12.5 µg/mL | 6.3 µg/mL | 0.8 µg/mL | 1.6 µg/mL | CCCCCCCCCCC1N=C(N)N=C(N)N1Cc1ccc(C(F)(F)F)cc1.Cl (racemic) [18(2)]
114 µg/mL | 57 µg/mL | 0.9 µg/mL | 1.8 µg/mL | CCCCCCCCCCCNC1=NC(C)(C)N=C(NCCc2ccc(OC)cc2)N1.Cl [compound 6]
50 µg/mL | 25 µg/mL | 1.6 µg/mL | 3.1 µg/mL | CCCCCCCCCC1N=C(N)N=C(N)N1c1ccc(F)c(F)c1F.Cl (stereo not drawn) [compound 30]
12.5 µg/mL | 12.5 µg/mL | 0.4 µg/mL | 0.8 µg/mL | CCCCCCCCCNC1=NC(C)(C)N=C(NCc2ccccc2)N1.O=C(O)O [compound 47]
50 µg/mL | 12.5 µg/mL | 0.8 µg/mL | 1.6 µg/mL | CC(=O)O.CCCCCCCCCCCCNC1=NC(C)(C)N=C(NCC)N1 [compound 73]
– | – | 1.6 µg/mL (≈ 4.13 µM) | 1.6 µg/mL (≈ 4.13 µM) | CCCCCCCCC1N=C(N)NC(Nc2cc(C(C)(C)C)ccc2OC)=N1 (stereo not drawn) [compound 25]
>100 µg/mL | 25 µg/mL | 0.4 µg/mL | 3.1 µg/mL | CCCCCCCCNC1=NC(C)(C)N=C(NCc2ccc(O)cc2)N1.Cl [compound 8]
25 µg/mL (≈ 65.9 µM) | 25 µg/mL (≈ 65.9 µM) | 0.8 µg/mL (≈ 2.11 µM) | 0.8 µg/mL (≈ 2.11 µM) | CCCCCCCCNC1=NC(C)(C)N=C(Nc2cccc3ccccc23)N1 [compound 64]
100 µg/mL (≈ 274 µM) | 50 µg/mL (≈ 137 µM) | 1.6 µg/mL (≈ 4.38 µM) | 1.6 µg/mL (≈ 4.38 µM) | CCCCCCCCCCC1N=C(N)NC(Nc2ccc(F)cc2F)=N1 (stereo not drawn) [compound 34]
50 µg/mL | 25 µg/mL | 1.6 µg/mL | 3.1 µg/mL | CCCCCCCCCC1N=C(N)N=C(N)N1c1ccc(OC(F)(F)F)cc1.Cl (stereo not drawn) [compound 28]
25 µg/mL | 25 µg/mL | 0.8 µg/mL | 3.1 µg/mL | CCCCCCCCCCCC1N=C(N)N=C(N)N1c1ccc(F)cc1F.Cl (racemic) [compound 35]
25 µg/mL | 12.5 µg/mL | 0.8 µg/mL | 1.6 µg/mL | CCCCCCCCC1N=C(N)NC(NCc2ccc(C(F)(F)F)cc2)=N1.Cl (stereo not drawn) [compound 17]
100 µg/mL | 50 µg/mL | 0.4 µg/mL | 3.1 µg/mL | CCCCCCCCCCCC1N=C(N)NC(NCc2ccc(C(F)(F)F)cc2)=N1.Cl (stereo not drawn) [compound 19]
25 µg/mL | 12.5 µg/mL | 0.4 µg/mL | 0.4 µg/mL | CCCCCCCCCCCC1(C)N=C(N)NC(NCc2ccccc2)=N1.Cl (racemic) [compound 46]
26 µg/mL | – | 0.4 µg/mL | 6.4 µg/mL | CCCCCCCCCCNC1=NCN=C(NCCc2ccc(OC)cc2)N1.Cl [compound 10]
– | – | 0.5 µg/mL | 0.9 µg/mL | CCCCCCCCCNC1=NC(C)(C)N=C(NCCc2ccc(OC)cc2)N1.Cl [compound 5]
– | 25 µg/mL | 1.6 µg/mL | 1.6 µg/mL | CCCCCCCCCCNC1=NC(C)(C)N=C(NCc2ccc(OC)c(OC)c2)N1.Cl [compound 3]

Structure (SMILES) | minimal inhibitory concentration (MIC) (P. aeruginosa PAO-1) | minimal inhibitory concentration (MIC) (E. coli NIHJ JC-2) | minimal inhibitory concentration (MIC) (S. aureus 209PJC) | minimal inhibitory concentration (MIC) (MRSA 97-115)
CCCCCCCCCCNC1=NC(C)(C)N=C(NCc2ccccc2)N1.O=C(O)C(=O)O [compound 42] | 12.5 µg/mL | 12.5 µg/mL | 0.8 µg/mL | 1.6 µg/mL
CCCCCCCCCCNC1=NC(C)(C)N=C(NCc2ccc(OC)cc2)N1.O=C(O)CC(=O)O [compound 39] | 50 µg/mL | 25 µg/mL | 0.4 µg/mL | 0.8 µg/mL
CC(=O)O.CCCCCCCCCCNC1=NC(C)(C)N=C(NCc2ccccc2)N1 [compound 50] | 25 µg/mL | – | 0.4 µg/mL | 0.4 µg/mL
